According to US20250049957A1, “CSF TRANSPORT PATHWAY FOR DELIVERY OF AGENTS TO INNER EAR” (University of Rochester, priority 2021, published 2025):
“Also recorded” adds a separate entry of the source.

Legend:
[1] = mouse, in vivo
Description: Briefly, mice were anesthetized with a mixture of Ketamine/Xylazine (100 mg/kg, 10 mg/kg, respectively), after depth of anesthesia was confirmed by the cessation of reflexes, the incision area was properly shaved and sterilized with the aid of ethanol 70% swabs (Vitrex Medical A/S Herlev, DK), followed by iodine solution (Povidone Iodine 7.5% Henry Schein, Melville, NY, USA) applicated using cotton swabs. Before the onset of surgery, analgesics were applied, Lidocaine (0.05 ml, 0.2 mg/ml) was applied in the incision site and Buprenorphine (0.05 mg/kg) injected subcutaneously for post-surgical analgesia. After performing the skin incision around the occipital crest, the neck muscles were separated to reveal the CM underneath. […]
Immediately after the CM cannulation procedure, animals were moved to MRI scanner and head movement during scanning was minimized by restraining the animals on an MR-compatible stereotactic holder with ear bars. Body temperature was maintained at 37±0.5° C. with a thermostatically controlled waterbed and monitored, along with the respiratory rate by an MR compatible remote monitoring system (SA Instruments, NY, USA). […] Every 3D-CISS image was calculated as a maximum intensity projection from 4 realigned 3D-TrueFISP volumes with 4 orthogonal phase encoding directions (TR/TE 3.9/1.95 ms, Nex 2, FA 50°, FOV 19.2×12.8×12.8 mm, Matrix 192×128×128, BW 150 kHz). […]

[2] = CT live imaging of CSF tracer after intracisternal infusion, with dispersion model; format: in vivo, mouse
Description: During the CM cannulation procedure a custom-made head bar was fixed on the top of the animal skull. The head bar was designed to minimize undesired movements during the image acquisition (Yoshida et al., 2016), and fixed to an animal holder. […] Animal's respiration was monitored by using Biovet software. CT scans were performed with the Vector4CT system (MILabs, Utrecht, Netherlands) and scanning of the entire mouse head was performed in 4.56 min at an isotropic spatial resolution of 20 μm. The time series CT scanning protocol comprised one baseline scan (4.5 min) followed by intracisternal infusion of Omnipaque (350 mg I/ml, 1 μL/min, 10 μL, GE healthcare). Scans continued over 6 measurements (30 min) after intracisternal infusion of Omnipaque.
The time-intensity data was extracted using ITK snap with the ROIs described above after background subtraction and then normalized to maximal cisterna magna intensity. Dimensions of cochlear aqueduct were measured using the #X feature in ITK snap for #four animals. Distances between ROIs were calculated using their spatial coordinates.
To solve the equation (#ref), inventors implemented a simple finite difference scheme in Python (#ref) using NumPy and Scipy (#ref). Estimation of the dispersion coefficient was achieved by minimizing the L2-norm prediction error, using Scipy (#ref) E: […]

Row | SMILES | Time activity curves for tracer influx in mice lacking aqp4 [1] | Time to reach 50 max [1] | Tracer concentration in scala vestibuli or cochlear nerve (CT) ([2]; during the 30 min of scanning) | Tracer dispersal into scala tympani (CT) ([2]; intracisternal delivery, 30 min of scanning)
1 | O=C([O-])CN1CCN(CC(=O)[O-])CCN([C@H](CO)[C@H](O)CO)CCN(CC(=O)[O-])CC1.[Gd+3] (racemic) [Gadovist, gadobutrol] | did not differ from wild type animals | significantly higher in the cochlea | – | –
2 | CC(=O)N(CC(O)CO)c1c(I)c(C(=O)NCC(O)CO)c(I)c(C(=O)NCC(O)CO)c1I (stereo not shown) [Omnipaque] | – | – | No clear rise; also recorded: no significant tracer arrives | reaches the base and middle region of the scala tympani; also recorded: moves into the base of scala tympani
